The values that follow come from article PMC8820783, “In vitro and in silico studies on clinically important enzymes inhibitory activities of flavonoids isolated from Euphorbia pulcherrima” (Annals of Medicine, 2022).

Like-named read-outs stand apart in the source and are kept apart here.

For data set [1], the target named is phosphodiesterase I from Crotalus adamanteus venom (Crotalus adamanteus, UniProt J3SEZ3). The data set can be described thus: biochemical.
Data set [2] concerns the target bovine serum albumin (BSA) glycation by MGO (Bos taurus, UniProt P02769). The data set can be described thus: Anti-glycation inhibition (BSA-MGO fluorescence). Type of data set: biochemical. Conditions: 37 °C, 9 days; for IC50: read-out: IC50 ± S.E. (antiglycation). As to the method: After incubation, glycation of protein was measured using fluorescence (emission, 440 nm; excitation, 330 nm), against a blank, and using a microtiter plate spectrophotometer (Spectra Max, Molecular Devices, Sunnyvale, CA).

Data set [3] has as its target T1, mushroom tyrosinase (Agaricus bisporus, UniProt C7FF04).
T1 construct: purchased Sigma-Aldrich T3824; host or cells: mushroom (natural source)
The experiment in a line: Tyrosinase inhibition (L-DOPA, 96-well). The format is biochemical. The note with it: L-DOPA substrate, read-out: IC50 ± S.E. (tyrosinase).
Description: According to this method, the tested compounds (10 µL) was carefully transfer into a 96-well microplate, mixed with 10 µL mushroom tyrosinase and buffer solution 60 µL. After incubation, 20 µL of 3,4-dihydroxy-l-phenylalanine (L-DOPA) in phosphate buffer was blended, and some amount of dopachrome was added into the reaction mixture. The effect was checked by spectrophotometry at 450 nm with (OD480) (optical density, OD). EZ-Fit software was used to measure the IC50 values in µM. The % inhibition was calculated by using following formula. Percent inhibition=100−OD test well/OD control×100

Data set [4] has as its target Jack bean (Canavalia ensiformis) urease (Canavalia ensiformis, UniProt P07374). The data set can be described thus: biochemical.

Sequence of phosphodiesterase I from Crotalus adamanteus venom (J3SEZ3 24-851 limits assumed): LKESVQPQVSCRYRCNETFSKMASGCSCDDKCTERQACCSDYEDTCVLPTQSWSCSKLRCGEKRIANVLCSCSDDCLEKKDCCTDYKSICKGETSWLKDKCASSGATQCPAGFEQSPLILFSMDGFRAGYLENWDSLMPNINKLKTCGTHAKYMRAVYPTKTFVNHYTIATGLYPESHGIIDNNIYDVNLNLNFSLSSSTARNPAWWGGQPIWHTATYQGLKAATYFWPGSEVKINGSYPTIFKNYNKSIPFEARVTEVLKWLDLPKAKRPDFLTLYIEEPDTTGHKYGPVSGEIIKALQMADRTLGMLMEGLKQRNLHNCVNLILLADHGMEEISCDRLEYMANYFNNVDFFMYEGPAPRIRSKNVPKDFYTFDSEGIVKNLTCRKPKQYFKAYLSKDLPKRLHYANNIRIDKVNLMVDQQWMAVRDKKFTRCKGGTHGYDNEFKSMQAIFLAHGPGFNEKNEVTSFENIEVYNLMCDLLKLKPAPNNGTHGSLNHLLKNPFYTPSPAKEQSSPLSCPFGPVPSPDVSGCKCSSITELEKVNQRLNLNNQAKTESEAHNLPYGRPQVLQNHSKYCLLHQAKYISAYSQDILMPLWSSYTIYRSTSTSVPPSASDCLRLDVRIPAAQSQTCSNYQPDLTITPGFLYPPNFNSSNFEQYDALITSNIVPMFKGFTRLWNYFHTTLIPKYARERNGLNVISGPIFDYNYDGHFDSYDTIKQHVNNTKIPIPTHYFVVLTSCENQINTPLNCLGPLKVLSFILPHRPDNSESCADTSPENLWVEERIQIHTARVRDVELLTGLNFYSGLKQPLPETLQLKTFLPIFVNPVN
Sequence of bovine serum albumin (BSA) glycation by MGO (P02769 25-607): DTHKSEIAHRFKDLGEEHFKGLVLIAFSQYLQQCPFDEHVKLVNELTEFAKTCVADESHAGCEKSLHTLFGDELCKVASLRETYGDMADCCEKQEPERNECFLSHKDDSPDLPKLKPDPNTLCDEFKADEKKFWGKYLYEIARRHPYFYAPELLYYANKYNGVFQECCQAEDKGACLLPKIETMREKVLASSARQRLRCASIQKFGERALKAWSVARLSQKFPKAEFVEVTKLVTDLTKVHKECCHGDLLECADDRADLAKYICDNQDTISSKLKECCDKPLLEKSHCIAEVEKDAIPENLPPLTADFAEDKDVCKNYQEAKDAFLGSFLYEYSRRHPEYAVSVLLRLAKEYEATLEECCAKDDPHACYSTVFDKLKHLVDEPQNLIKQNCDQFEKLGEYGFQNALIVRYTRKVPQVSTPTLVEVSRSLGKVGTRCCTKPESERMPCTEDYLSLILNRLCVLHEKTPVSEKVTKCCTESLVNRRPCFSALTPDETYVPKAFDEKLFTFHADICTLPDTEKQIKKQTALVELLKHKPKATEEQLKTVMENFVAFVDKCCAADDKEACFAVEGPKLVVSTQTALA
T1 sequence (C7FF04 1-392 limits assumed): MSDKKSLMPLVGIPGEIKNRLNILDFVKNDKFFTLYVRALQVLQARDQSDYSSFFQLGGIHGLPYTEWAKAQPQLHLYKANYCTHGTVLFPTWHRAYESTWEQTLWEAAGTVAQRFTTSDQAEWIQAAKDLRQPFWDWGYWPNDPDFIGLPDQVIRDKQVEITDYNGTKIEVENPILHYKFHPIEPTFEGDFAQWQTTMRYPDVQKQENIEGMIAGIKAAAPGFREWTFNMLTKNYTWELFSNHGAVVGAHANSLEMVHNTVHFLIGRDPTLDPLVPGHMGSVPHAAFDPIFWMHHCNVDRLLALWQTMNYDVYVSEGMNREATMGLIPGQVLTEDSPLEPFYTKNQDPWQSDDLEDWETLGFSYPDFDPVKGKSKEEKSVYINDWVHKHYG
Sequence of Jack bean (Canavalia ensiformis) urease (P07374 whole entry, looked up): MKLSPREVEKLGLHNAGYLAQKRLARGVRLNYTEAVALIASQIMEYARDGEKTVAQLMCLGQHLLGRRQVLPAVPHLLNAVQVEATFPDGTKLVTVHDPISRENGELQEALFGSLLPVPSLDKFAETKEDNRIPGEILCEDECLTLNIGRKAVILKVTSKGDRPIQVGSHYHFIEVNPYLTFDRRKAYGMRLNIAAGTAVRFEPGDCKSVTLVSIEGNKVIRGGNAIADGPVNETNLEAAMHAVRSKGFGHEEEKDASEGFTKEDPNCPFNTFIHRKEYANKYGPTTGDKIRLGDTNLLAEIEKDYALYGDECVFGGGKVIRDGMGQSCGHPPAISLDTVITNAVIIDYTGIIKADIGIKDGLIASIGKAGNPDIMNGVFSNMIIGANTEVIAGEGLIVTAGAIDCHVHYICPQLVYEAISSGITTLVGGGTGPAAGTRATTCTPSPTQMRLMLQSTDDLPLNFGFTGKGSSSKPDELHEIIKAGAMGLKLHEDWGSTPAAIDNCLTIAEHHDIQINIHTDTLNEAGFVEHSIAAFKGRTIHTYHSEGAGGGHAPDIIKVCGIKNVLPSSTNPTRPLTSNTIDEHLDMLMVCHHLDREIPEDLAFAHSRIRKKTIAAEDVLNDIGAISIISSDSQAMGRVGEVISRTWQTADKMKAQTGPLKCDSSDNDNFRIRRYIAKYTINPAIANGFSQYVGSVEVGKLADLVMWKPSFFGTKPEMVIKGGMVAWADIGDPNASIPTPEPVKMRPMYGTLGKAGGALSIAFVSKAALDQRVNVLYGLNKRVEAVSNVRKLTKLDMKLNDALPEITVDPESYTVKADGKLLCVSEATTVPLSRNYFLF

Turning to `O=C(O)CN(CCN(CC(=O)O)CC(=O)O)CC(=O)O` [EDTA, reference compound], the half-inhibitory concentration (IC50) in data set [1] (table head prints no unit, read-out: IC50 ± S.E.M. (phosphodiesterase)) turned out to be 265 ± 2.24 µM.
As to `COc1cc(-c2oc3cc(O)c(OC)c(O)c3c(=O)c2O)ccc1O` [compound 1, 3,5,7-trihydroxy-2-(4-hydroxy-3-methoxyphenyl)-6-methoxy-4H-chromen-4-one], the IC50 in data set [1] amounted to 148.7 ± 1.09 µM; in data set [3], 48.7 ± 2.19 µM; in data set [4], 15.3 ± 2.13 µM. Moreover, the “IC50 ± S.E. (antiglycation)” value in data set [2] was “inactive”.
For the compound `COc1c(O)cc2oc(-c3ccc(O)c(O)c3)c(O)c(=O)c2c1O` [compound 2, 2-(3,4-dihydroxyphenyl)-3,5,7-trihydroxy-6-methoxy-4H-chromen-4-one], the half-inhibitory concentration (IC50) came out at 95.2 ± 4.14 µM in data set [1], 244.8 ± 1.79 µM in data set [2], 74.8 ± 1.79 µM in data set [3] and 19 ± 2.43 µM in data set [4].
For `C[C@@H]1O[C@@H](OC[C@H]2O[C@@H](Oc3c(-c4ccc(O)c(O)c4)oc4cc(O)cc(O)c4c3=O)[C@H](O)[C@@H](O)[C@@H]2O)[C@H](O)[C@H](O)[C@H]1O` [rutin, Rutin, reference compound], the IC50 in data set [2] turned out to be 295 ± 3.14 µM.

By IC50 is commonly meant the point on the concentration scale where inhibition reaches its midpoint.
